{"source": "patent US9399045B2", "about": "“Inhibition of choroidal neovascularization” (Washington University, priority 2011, dated 2016)", "key": {"[1]": {"tested_on": "ABCA1 expression", "test": "ABCA1 expression in tissues of old mice after 5 days of intraperitoneal TO-901317", "format": "in vivo, mouse", "conditions": "25 or 50 mg/kg/day for 5 days, FIG. 4e-g and FIG. 10", "description": "(§1) Total RNA was prepared from splenic macrophage, peritoneal macrophages, retina, choroid or PBMCs using the RNeasy mini kit (Qiagen inc., Valencia, Calif.). cDNA was prepared using the High Capacity cDNA Archive Kit (Applied Biosystems) and PCR amplifications of cDNA were performed using Taqman probe-based gene expression assay (Applied Biosystems) as previously described (Kelly, J., et al., Senescence regulates macrophage activation and angiogenic fate at sites of tissue injury in mice. J Clin Invest 117, 3421-3426, 2007). Primer and probe sets were as follows: ActB. Mm00607939_s1; ABCA1, Mm00442649_ml; ABCG1, Mm01348250_ml; IL-6, Mm00446190_ml; FasL, Mm00438864_ml; IL-10, Mm99999062_ml; 18s rRNA. […]\n(§2) Whole cell lysate was extracted from mouse peritoneal macrophages or human PBMCs using lysis buffer (50 mM Tris (pH=7.4), 150 mM NaCl, 1% EDTA, 10% TritonX, and 1% SDS) with proteinase inhibitor (Complete, Roche). […] Proteins were detected and analyzed using the Odyssey Infrared Imaging System (LI-COR Biosciences, Lincoln, Nebr.). Band densities of ABCA1 and ABCG1 were quantified and normalized to β-actin.\n(§3) Old mice (>18 months) were given a daily intraperitoneal injection of vehicle, 25 mg/kg or 50 mg/kg TO-901317. After five consecutive days treatment, CNV was induced in one set of mice (5 of each group) and analyzed as described above. […]"}, "[2]": {"tested_on": "HMVECs", "test": "Vascular endothelial cell proliferation assay: HMVECs co-cultured with treated peritoneal macrophages, [3H] thymidine", "format": "cell-based, human", "description": "Cell proliferation was measured with an adaptation of a previously described method (Khan, A. A. & Apte, R. S. An assay for macrophage-mediated regulation of endothelial cell proliferation. Immunobiology 213, 695-699, 2008). HMVECs (1×10^4 cells) in log phase were cultured in 96-well round-bottomed plates for adherence. HMVECS cells were then co-cultured with peritoneal macrophages (1:25 ratio) and incubated with 5 μCi/ml [^3H] thymidine (PerkinElmer) for 24 hours. Cells were harvested onto glass fiber filters (Packard) and incorporated [3H] thymidine was read using TopCount NXT (PerkinElmer).\nYoung and old peritoneal macrophages were treated with Liver X Receptor (LXR) agonist, TO-901317 (Sigma-Aldrich, St. Louis, Mo.) for 24 hours. LXR agonist was dissolved in DMSO (vehicle) and treatment dosage ranged from 0 to 10 μM. Treated macrophages were analyzed for ABCA1 and ABCG1 gene expression and their ability to inhibit HMVECs proliferation was tested.\nPeritoneal macrophages were transfected with 50 nM miScript miR33 inhibitor (anti-miR33) or negative control inhibitor (con anti-miR) using HiPerFect Transfection reagent (Qiagen). The transfection efficiency of macrophages was assessed using BLOCK-iT Fluorescent Oligo (Invitrogen). After miR33 inhibition, target genes and proteins were analyzed by qPCR and Western blot."}, "[3]": {"tested_on": "ABCG1 gene expression", "test": "ABCG1 gene expression in peritoneal macrophages treated with LXR agonist (real time qPCR)", "format": "cell-based, mouse", "conditions": "peritoneal young or old macrophages, 24 hours, 0 to 10 μM, FIG. 4a-b", "description": "(§4) Peritoneal macrophages recruitment was elicited by intraperitoneal injection of 4% thioglycollate. Five days after injection, macrophages were harvested and cultured in RPMI-1640 overnight (Gibco, Grand Island, N.Y.). Macrophages were then washed with RPMI-1640 and non-adherent cells removed. Total RNA was prepared from splenic macrophage, peritoneal macrophages, retina, choroid or PBMCs using the RNeasy mini kit (Qiagen inc., Valencia, Calif.). cDNA was prepared using the High Capacity cDNA Archive Kit (Applied Biosystems) and PCR amplifications of cDNA were performed using Taqman probe-based gene expression assay (Applied Biosystems) as previously described (Kelly, J., et al., Senescence regulates macrophage activation and angiogenic fate at sites of tissue injury in mice. J Clin Invest 117, 3421-3426, 2007). Primer and probe sets were as follows: ActB. Mm00607939_s1; ABCA1, Mm00442649_ml; ABCG1, Mm01348250_ml; IL-6, Mm00446190_ml; FasL, Mm00438864_ml; IL-10, Mm99999062_ml; 18s rRNA. Hs99999901_s1; ABCA1, Hs00442663_ml; ABCG1: Hs 01555199_gl; IL10, Hs00961622_ml. Young and old peritoneal macrophages were treated with Liver X Receptor (LXR) agonist, TO-901317 (Sigma-Aldrich, St. Louis, Mo.) for 24 hours. […] Treated macrophages were analyzed for ABCA1 and ABCG1 gene expression and their ability to inhibit HMVECs proliferation was tested."}, "[4]": {"tested_on": "choroidal neovascularization (CNV)", "test": "Laser-induced CNV in old mice", "format": "in vivo, mouse", "conditions": "intraperitoneal, 25 or 50 mg/kg/day for 5 days prior to laser, FIG. 4h-i", "description": "Rupture of Bruchs membrane with laser was used to initiate CNV in mice as described previously (Apte R S, Niederkorn J Y. Isolation and characterization of a unique natural killer cell inhibitory factor present in the anterior chamber of the eye. J. Immunol. 156:2667-2673, 1996). Briefly, mice were anesthetized by injecting ketamine hydrochloride (100 mg/kg) and xylazine (13.4 mg/kg) intraperitoneally, and their pupils were dilated with 1% tropicamide. Using argon green laser, four laser burns were placed around the optic nerve (0.1 second, 50 μm, and 110 mW). Seven days after laser, mice were anesthetized as described above and perfused intraventricularly with FITC-dextran (Sigma-Aldrich). Mice were euthanized in a CO2 chamber, and their eyes were harvested for tissue processing. […]\nMicro scissors were used to make four radial incisions in the sclerochoroidal “eyecup” to prepare choroidal flat mounts on glass slides. […] The choroidal flat mounts were analyzed for the presence of CNV by confocal microscopy. The extent of choroidal neovascularization was quantified by Metamorph Imaging software. […]\nas §3"}, "[5]": {"tested_on": "ABCG1 expression", "test": "ABCG1 expression in tissues of old mice after 5 days of intraperitoneal TO-901317", "format": "in vivo, mouse", "conditions": "25 or 50 mg/kg/day for 5 days, FIG. 4e-g and FIG. 10", "description": "as §1, §2, §3"}, "[6]": {"tested_on": "ABCA1 gene expression", "test": "ABCA1 gene expression in peritoneal macrophages treated with LXR agonist (real time qPCR)", "format": "cell-based, mouse", "conditions": "peritoneal young or old macrophages, 24 hours, 0 to 10 μM, FIG. 4a-b", "description": "as §4"}}}
{"compound": "O=S(=O)(c1ccccc1)N(CC(F)(F)F)c1ccc(C(O)(C(F)(F)F)C(F)(F)F)cc1", "note": "[TO-901317, N-(2,2,2-trifluoro-ethyl)-N-[4-(2,2,2-tri-fluoro-1-hydroxy-1-trifluoromethyl-ethyl)-phenyl]-benzenesulfonamide]", "values": [{"measurement": "ABCA1 expression compared to vehicle treated mice", "setting": "[1]", "value": "strong systemic upregulation"}, {"measurement": "ability of treated macrophages to inhibit HMVECs proliferation", "setting": "[2]; Abca1−/− macrophages treated with LXR agonist", "value": "does not restore their ability to inhibit HMVECs proliferation"}, {"measurement": "ability of treated macrophages to inhibit endothelial cell proliferation", "setting": "[2]; old macrophages treated with LXR agonist, co-cultured with HMVECs, FIG. 4d", "value": "completely restored their ability to inhibit endothelial cell proliferation"}, {"measurement": "ABCG1 gene expression", "setting": "[3]", "value": "dose-dependent upregulation"}, {"measurement": "CNV compared to vehicle treated old mice", "setting": "[4]", "value": "significant and dose dependent reduction in CNV"}, {"measurement": "ABCG1 expression compared to vehicle treated mice", "setting": "[5]", "value": "strong systemic upregulation"}, {"measurement": "ABCA1 gene expression", "setting": "[6]", "value": "dose-dependent upregulation"}]}
